BigSolDB 2.1

SMILES: O=C(O)c1ccco1
- solubility (mole fraction) (in acetone, 280.15 K): 0.153
- solubility (mole fraction) (in acetone, 283.25 K): 0.159
- solubility (mole fraction) (in acetone, 288.55 K): 0.172
- solubility (mole fraction) (in acetone, 293.25 K): 0.189
- solubility (mole fraction) (in acetone, 299.15 K): 0.206
- solubility (mole fraction) (in acetone, 302.95 K): 0.218
- solubility (mole fraction) (in acetone, 308.45 K): 0.237
- solubility (mole fraction) (in acetone, 315.75 K): 0.265
- solubility (mole fraction) (in ethanol, 279.35 K): 0.152
- solubility (mole fraction) (in ethanol, 282.75 K): 0.162
- solubility (mole fraction) (in ethanol, 287.35 K): 0.176
- solubility (mole fraction) (in ethanol, 294.55 K): 0.198
- solubility (mole fraction) (in ethanol, 297.65 K): 0.208
- solubility (mole fraction) (in ethanol, 303.05 K): 0.225
- solubility (mole fraction) (in ethanol, 310.15 K): 0.25
- solubility (mole fraction) (in ethanol, 313.75 K): 0.268
- solubility (mole fraction) (in ethanol, 320.75 K): 0.29
- solubility (mole fraction) (in ethanol, 325.75 K): 0.311
- solubility (mole fraction) (in ethyl acetate, 281.35 K): 0.0858
- solubility (mole fraction) (in ethyl acetate, 287.05 K): 0.0983
- solubility (mole fraction) (in ethyl acetate, 291.95 K): 0.11
- solubility (mole fraction) (in ethyl acetate, 296.55 K): 0.124
- solubility (mole fraction) (in ethyl acetate, 301.25 K): 0.137
- solubility (mole fraction) (in ethyl acetate, 305.15 K): 0.147
- solubility (mole fraction) (in ethyl acetate, 307.45 K): 0.157
- solubility (mole fraction) (in ethyl acetate, 312.15 K): 0.171
- solubility (mole fraction) (in ethyl acetate, 316.35 K): 0.191
- solubility (mole fraction) (in ethyl acetate, 322.35 K): 0.216
- solubility (mole fraction) (in methyl acetate, 280.85 K): 0.106
- solubility (mole fraction) (in methyl acetate, 284.15 K): 0.117
- solubility (mole fraction) (in methyl acetate, 287.75 K): 0.127
- solubility (mole fraction) (in methyl acetate, 291.65 K): 0.137
- solubility (mole fraction) (in methyl acetate, 295.05 K): 0.146
- solubility (mole fraction) (in methyl acetate, 298.75 K): 0.156
- solubility (mole fraction) (in methyl acetate, 302.35 K): 0.166
- solubility (mole fraction) (in methyl acetate, 308.25 K): 0.184
- solubility (mole fraction) (in methyl acetate, 316.35 K): 0.216
- solubility (mole fraction) (in methyl acetate, 319.35 K): 0.232
- solubility (mole fraction) (in n-propanol, 282.95 K): 0.138
- solubility (mole fraction) (in n-propanol, 288.35 K): 0.158
- solubility (mole fraction) (in n-propanol, 293.75 K): 0.176
- solubility (mole fraction) (in n-propanol, 297.55 K): 0.195
- solubility (mole fraction) (in n-propanol, 303.15 K): 0.208
- solubility (mole fraction) (in n-propanol, 307.65 K): 0.226
- solubility (mole fraction) (in n-propanol, 312.55 K): 0.244
- solubility (mole fraction) (in n-propanol, 315.45 K): 0.258
- solubility (mole fraction) (in n-propanol, 319.75 K): 0.273
- solubility (mole fraction) (in n-propanol, 326.15 K): 0.3
- solubility (mole fraction) (in water, 284.85 K): 0.0032
- solubility (mole fraction) (in water, 295.25 K): 0.0064
- solubility (mole fraction) (in water, 299.45 K): 0.0079
- solubility (mole fraction) (in water, 304.65 K): 0.0095
- solubility (mole fraction) (in water, 310.65 K): 0.0127
- solubility (mole fraction) (in water, 313.25 K): 0.0156
- solubility (mole fraction) (in water, 316.85 K): 0.0184
- solubility (mole fraction) (in water, 319.45 K): 0.022
- solubility (mole fraction) (in water, 321.95 K): 0.0282
- solubility (mole fraction) (in water, 324.75 K): 0.0342
